# Measurements from patent US8569447B2, “Cell-permeable peptide inhibitors of the JNK signal transduction pathway” (Xigen SA, priority 2003, dated 2013).
# Non-standard residues stand in square brackets, D forms with d. Residues, ends and D or L forms follow the SMILES beside them.
# Key:
# [1] = Systolic and diastolic blood pressure after D-JNKI injection; format: in vivo, mice; details: 10 minutes before until 30 minutes after injection
# Text: Using male ICR-CD1 mice (approximately 6 weeks old and weighing in the range of about 18 to 37 g) (Harlan, Inc.), ischemia was provoked by introducing a filament from the common carotid artery into the internal carotid artery and advancing the filament into the arterial circle, thereby occluding the middle cerebral artery. See, e.g., Huang et al., Science, 265:1883-85 (1994); Hara et al., Proc. Natl. Acad. Sci. (USA) 94:2007-12 (1997); each of which is hereby incorporated by reference in its entirety. Regional cerebral blood flow was measured by laser-Doppler flowmetry with a probe fixed on the skull throughout the ischemia and until 10 minutes after reperfusion. Rectal temperature was measured and maintained at 37° C. The animals were sacrificed 48 hours after reperfusion. Serial cryostat sections […] were traced using a computer-microscope system equipped with the Neurolucida program (Microbrightfield, Inc.), and the volumes of the ischemic area and of the whole brain were calculated (blind) with the Neuroexplorer program. Systolic and diastolic blood pressure were measured with an arterial catheter in three additional mice from 10 minutes before the D-JNKI injection until 30 minutes afterwards. […] The Guidelines of the Swiss Federal Veterinary Office were followed in all experiments.
# [2] = Rotarod test of motor coordination; format: in vivo, mice; details: for motor coordination (rotarod), overall: doses of Table 2: D-JNKI i.p. and icv, MK-801 1 mg/Kg i.p.
# Protocol: Typically, the high toxicity of other neuroprotective compounds has severely limited their clinical use. (See Gladstone et al., Stroke, 33:2123-36 (2002), incorporated by reference in its entirety). The ability of mice to maintain themselves on horizontal turning rotarod was used as criterion for possible side effects of different doses of D-JNKI and of a therapeutic dose of MK-801 (1 mg/Kg, a standard therapeutic dose). […] (11 and 110 mg/Kg) and icv injections of D-JNKI (2 μl containing 15.7 ng or 157 ng of D-JNKI). The i.p. injection of MK-801 (1 mg/Kg) was used as a control compound during this assessment procedure.
# The mice were trained the day before and in the morning of the experimental day, in order to reduce the variability between subjects. Both training and test sessions were identical for control and injected mice. […] The mice were placed on the rotarod, which was programmed to accelerate uniformly from 4 to 40 rpm. The latency to falls for each mouse tested was recorded. The results of this assessment using the rotarod method are presented in Table 2 as median latency to fall (measured in seconds).
# recombinant JNK1α1 = recombinant JNK1α1 (Homo sapiens, UniProt P45983); experiment: In vitro kinase assay with recombinant JNK1α1; format: biochemical
# Protocol: (§1) Cellular extracts were prepared by scraping cells in lysis buffer (20 mM Tris-acetate, 1 mM EGTA, 1% Triton X-100, 10 mM p-nitrophenyl-phosphate, 5 mM sodium pyrophosphate, 10 mM β-glycerophosphate, 1 mM dithiothreitol). 25 μg samples were incubated for 1 hour at room temperature with 1 μg GST-c-Jun (amino acid residues 1-89) and 10 μL glutathione-agarose beads (Sigma). The beads were washed four times and then resuspended in the lysis buffer described above. In vitro kinase assays were then performed using recombinant JNK1α1 and 0.5 μg of a substrate selected from the group consisting of GST-fusion proteins (e.g., GST-Jun and GST-Elk1 fusion proteins), casein and histone (Sigma). Reactions were initiated with 10 mM MgCl2 and 10 μM ATP in the presence of 5 μCi ^33P-ATP, and were incubated for 30 minutes at 30° C. The reaction products were separated by SDS-PAGE, and the gels were dried and then exposed to X-ray films (Kodak).
# The terms “P-Jun” and “P-Elk1,” as used herein, refer to the radiolabeled (i.e., phosphorylated with ^33P-ATP) forms of GST-Jun and GST-Elk1 substrates, respectively.
# p34 = p34 (Homo sapiens, UniProt P06493); experiment: Kinase specificity assay; format: biochemical; details: 500 μM, substrate histone
# Protocol: as §1
# (§2) In vitro experiments were performed to determine the specificity of the JNKI peptides in blocking JNK activation. […] The complete list of substrates used in these experiments can be found on the world wide web at www.upstate.com/img/pdf/KinaseProfiler.pdf. […] The substrates for these kinases are ERK2:ERK1; p38:ATF2; p34, pKC, pKA:histone; and caK:caseine. […] For a discussion of other small chemical inhibitors of the Jun N-terminal kinase (JNK), See Bennett et al., Proc. Natl. Acad. Sci. (USA), 98:13681-86 (2001), hereby incorporated by reference in its entirety.
# caK = experiment: Kinase specificity assay; format: biochemical; details: 500 μM, substrate caseine
# Protocol: as §1, §2
# ERK2 = ERK2 (Homo sapiens, UniProt P28482); experiment: Kinase specificity assay; format: biochemical; details: 500 μM
# Protocol: as §1, §2
# p38 = p38 (Homo sapiens, UniProt Q16539); experiment: Kinase specificity assay; format: biochemical; details: 500 μM, substrate ATF2
# Protocol: as §1, §2
# pKC = experiment: Kinase specificity assay; format: biochemical; details: 500 μM, substrate histone
# Protocol: as §1
# In vitro experiments were performed to determine the specificity of the JNKI peptides in blocking JNK activation. In particular, the effect of these peptides on the activity of 40 different kinases (10 μM peptides, 10 μM ATP) towards their respective substrates was tested. The complete list of substrates used in these experiments can be found on the world wide web at www.upstate.com/img/pdf/KinaseProfiler.pdf. […]
# JNK = details: JBDs of IB1 and IB2; cited from earlier work
# βTC-3 cell cultures = experiment: Cellular import of fluorescein-labeled peptides; format: cell-based; details: 1 μM, βTC-3 cells
# Protocol: The ability of the L- and D-enantiomeric forms of TAT, TAT-IB1 and TAT-IB2 peptides (“TAT-IB peptides”) to enter cells were evaluated.
# Labeled peptides (1 μM) were added to βTC-3 cell cultures, which were maintained as described in Example 3. At predetermined times, cells were washed with PBS and fixed for five minutes in ice-cold methanol-acetone (1:1) before being examined under a fluorescence microscope. Fluorescein-labeled BSA (1 μM, 12 moles/mole BSA) was used as a control.
# recombinant JNK1α1, sequence (P45983 1-384 isoform P45983-2, species assumed): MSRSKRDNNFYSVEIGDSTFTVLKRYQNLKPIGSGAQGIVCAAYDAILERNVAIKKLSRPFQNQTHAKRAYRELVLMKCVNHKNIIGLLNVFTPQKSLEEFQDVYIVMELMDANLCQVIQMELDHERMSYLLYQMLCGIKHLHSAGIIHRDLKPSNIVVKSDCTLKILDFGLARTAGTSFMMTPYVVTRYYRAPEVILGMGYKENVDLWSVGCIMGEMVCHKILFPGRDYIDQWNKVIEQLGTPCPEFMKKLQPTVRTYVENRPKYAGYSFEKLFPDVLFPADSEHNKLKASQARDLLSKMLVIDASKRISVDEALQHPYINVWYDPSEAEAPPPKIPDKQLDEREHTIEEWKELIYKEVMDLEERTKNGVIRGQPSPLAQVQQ
# p34, sequence (P06493 whole entry): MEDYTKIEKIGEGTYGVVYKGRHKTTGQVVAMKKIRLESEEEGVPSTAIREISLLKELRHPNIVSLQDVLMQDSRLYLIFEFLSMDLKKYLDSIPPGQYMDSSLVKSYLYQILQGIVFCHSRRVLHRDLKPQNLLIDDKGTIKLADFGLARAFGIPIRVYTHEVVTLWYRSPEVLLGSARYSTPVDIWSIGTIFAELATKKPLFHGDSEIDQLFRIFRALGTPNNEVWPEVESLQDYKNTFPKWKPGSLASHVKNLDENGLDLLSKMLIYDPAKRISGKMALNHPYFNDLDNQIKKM
# ERK2, sequence (P28482 whole entry, species assumed): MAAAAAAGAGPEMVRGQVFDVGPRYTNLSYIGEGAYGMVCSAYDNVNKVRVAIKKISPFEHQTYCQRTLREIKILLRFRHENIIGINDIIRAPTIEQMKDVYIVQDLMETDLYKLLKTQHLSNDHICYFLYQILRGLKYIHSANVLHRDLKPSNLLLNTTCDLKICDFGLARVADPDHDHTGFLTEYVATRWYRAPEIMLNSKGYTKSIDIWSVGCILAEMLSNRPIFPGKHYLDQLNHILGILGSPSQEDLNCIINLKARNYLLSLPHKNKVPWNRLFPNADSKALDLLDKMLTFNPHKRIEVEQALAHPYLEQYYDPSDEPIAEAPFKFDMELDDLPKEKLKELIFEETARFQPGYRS
# p38, sequence (Q16539 whole entry): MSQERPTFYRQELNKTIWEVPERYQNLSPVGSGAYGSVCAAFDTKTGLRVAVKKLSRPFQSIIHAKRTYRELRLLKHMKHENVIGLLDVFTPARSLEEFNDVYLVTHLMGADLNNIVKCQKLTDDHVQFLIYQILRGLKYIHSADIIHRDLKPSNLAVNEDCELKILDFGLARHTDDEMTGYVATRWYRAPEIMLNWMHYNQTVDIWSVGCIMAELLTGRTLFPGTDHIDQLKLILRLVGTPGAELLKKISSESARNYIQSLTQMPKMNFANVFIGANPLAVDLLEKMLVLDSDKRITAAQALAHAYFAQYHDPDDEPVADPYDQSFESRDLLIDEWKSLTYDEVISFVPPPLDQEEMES
molecule,measurement,setting,value
"CC(C)C[C@@H](NC(=O)[C@@H](Cc1ccccc1)NC(=O)[C@H]1CCCN1C(=O)[C@@H](CCC(N)=O)NC(=O)[C@H](NC(=O)[C@H]1CCCN1C(=O)[C@@H](CCCNC(=N)N)NC(=O)[C@@H](CO)NC(=O)[C@@H](CCC(N)=O)NC(=O)[C@@H](CC(=O)O)NC(=O)[C@H](N)[C@H](C)O)C(C)C)C(=O)N[C@H](CC(N)=O)C(=O)N[C@H](CC(C)C)C(=O)N[C@@H](C(=O)N[C@@H](C(=O)N1CCC[C@@H]1C(=O)N[C@H](CCCNC(=N)N)C(=O)N[C@H](CCCCN)C(=O)N1CCC[C@@H]1C(=O)N[C@H](CCCNC(=N)N)C(=O)N1CCC[C@@H]1C(=O)N1CCC[C@@H]1C(=O)N[C@H](CCCNC(=N)N)C(=O)N[C@H](CCCNC(=N)N)C(=O)N[C@H](CCCNC(=N)N)C(=O)N[C@H](CCC(N)=O)C(=O)N[C@H](CCCNC(=N)N)C(=O)N[C@H](CCCNC(=N)N)C(=O)N[C@H](CCCCN)C(=O)N[C@H](CCCCN)C(=O)N[C@H](CCCNC(=N)N)C(=O)NCC(=O)O)[C@H](C)O)[C@H](C)O [D-JNKI, TDQSRPVQPF LNLTTPRKPR PPRRRQR RKKRG] (H-[dT][dD][dQ][dS][dR][dP][dV][dQ][dP][dF][dL][dN][dL][dT][dT][dP][dR][dK][dP][dR][dP][dP][dR][dR][dR][dQ][dR][dR][dK][dK][dR]G-OH)",change of blood pressure,[1],less than 10%
same,Median Latency to Fall,"[2]; 15.7 ng icv, 1 day",302 s
same,Median Latency to Fall,"[2]; 15.7 ng icv, 6 days",345 s
same,Median Latency to Fall,"[2]; 15.7 ng icv, 12 days",285 s
same,Median Latency to Fall,"[2]; 15.7 ng icv, +3 hours",342 s
same,Median Latency to Fall,"[2]; 15.7 ng icv, −1 hour",210 s
same,Median Latency to Fall,"[2]; 157 ng icv, 1 day",253 s
same,Median Latency to Fall,"[2]; 157 ng icv, 6 days",338 s
same,Median Latency to Fall,"[2]; 157 ng icv, 12 days",335 s
same,Median Latency to Fall,"[2]; 157 ng icv, +3 hours",200 s
same,Median Latency to Fall,"[2]; 157 ng icv, −1 hour",260 s
same,Median Latency to Fall,"[2]; 11 mg/Kg i.p., 1 day",372 s
same,Median Latency to Fall,"[2]; 11 mg/Kg i.p., 6 days",287 s
same,Median Latency to Fall,"[2]; 11 mg/Kg i.p., 12 days",418 s
same,Median Latency to Fall,"[2]; 11 mg/Kg i.p., +3 hours",221 s
same,Median Latency to Fall,"[2]; 11 mg/Kg i.p., −1 hour",204 s
same,Median Latency to Fall,"[2]; 110 mg/Kg i.p., 1 day",447 s
same,Median Latency to Fall,"[2]; 110 mg/Kg i.p., 6 days",416 s
same,Median Latency to Fall,"[2]; 110 mg/Kg i.p., 12 days",325 s
same,Median Latency to Fall,"[2]; 110 mg/Kg i.p., +3 hours",266 s
same,Median Latency to Fall,"[2]; 110 mg/Kg i.p., −1 hour",276 s
same,motor impairment,[2]; at 6 and 15 days following treatment,no sign of motor impairment
same,"motor coordination (rotarod), overall",[2],unimpaired
"CC(C)C[C@H](NC(=O)[C@H](CC(N)=O)NC(=O)[C@H](CC(C)C)NC(=O)[C@@H](NC(=O)[C@@H](NC(=O)[C@@H]1CCCN1C(=O)[C@H](CCCNC(=N)N)NC(=O)[C@H](CCCCN)NC(=O)[C@@H]1CCCN1C(=O)[C@@H](N)CCCNC(=N)N)[C@@H](C)O)[C@@H](C)O)C(=O)N[C@@H](Cc1ccccc1)C(=O)N1CCC[C@H]1C(=O)N[C@@H](CCC(N)=O)C(=O)N[C@H](C(=O)N1CCC[C@H]1C(=O)N[C@@H](CCCNC(=N)N)C(=O)N[C@@H](CO)C(=O)N[C@@H](CCC(N)=O)C(=O)N[C@@H](CC(=O)O)C(=O)N[C@H](C(=O)O)[C@@H](C)O)C(C)C [L-JBD20, RPKRPTTLNL FPQVPRSQDT] (H-RPKRPTTLNLFPQVPRSQDT-OH)",IC50,"recombinant JNK1α1; JNK targets ATF2, IRS-1, MADD, bcl-xl, each case, data not shown",~1000 nM
same,inhibition of JNK action without the TAT sequence,recombinant JNK1α1; dose response,can inhibit JNK action
same,interference with activity of p34,p34,did not interfere with the activity
same,interference with activity of caK,caK,did not interfere with the activity
same,interference with activity of ERK2,ERK2,did not interfere with the activity
same,interference with activity of p38,p38,did not interfere with the activity
same,interference with activity of pKC,pKC,did not interfere with the activity
"N=C(N)NCCC[C@H](NC(=O)[C@H](CCCNC(=N)N)NC(=O)[C@H](CCCNC(=N)N)NC(=O)[C@H](CCC(N)=O)NC(=O)[C@H](CCCNC(=N)N)NC(=O)[C@H](CCCNC(=N)N)NC(=O)[C@H](CCCCN)NC(=O)[C@H](CCCCN)NC(=O)[C@H](CCCNC(=N)N)NC(=O)CN)C(=O)O [L-TAT, reference compound]",concentration at which the TAT sequence induces nonspecific precipitation of the proteins in the extracts,recombinant JNK1α1,greater than 50 μM
"C[C@]12N[C@H](Cc3ccccc31)c1ccccc12 [MK-801, reference compound]",Median Latency to Fall,"[2]; 1 mg/Kg i.p., 1 day",174 s
same,Median Latency to Fall,"[2]; 1 mg/Kg i.p., 6 days",233 s
same,Median Latency to Fall,"[2]; 1 mg/Kg i.p., 12 days",292 s
same,Median Latency to Fall,"[2]; 1 mg/Kg i.p., +3 hours",incapable
same,Median Latency to Fall,"[2]; 1 mg/Kg i.p., −1 hour",226 s
same,lethality,[2]; 10-fold higher dose of MK-801,killed all the mice
same,"motor coordination (rotarod), overall",[2],dramatic impairment of motor coordination
same,time after which side effects essentially disappear,[2]; lower dose of MK-801 (1 mg/Kg i.p.),24 h
IPSPSVEEPHKHRPTTLRLTTLGAQDS (IPSPSVEEPHKHRPTTLRLTTLGAQDS) [IB2-long],efficiency in binding JNK relative to c-Jun or ATF2,JNK,approximately 100 fold
PGTGCGDTYRPKRPTTLNLFPQVPRSQDT (PGTGCGDTYRPKRPTTLNLFPQVPRSQDT) [IB1-long],efficiency in binding JNK relative to c-Jun or ATF2,JNK,approximately 100 fold
fluorescein labeled bovine serum albumin: fluorescein labeled BSA (12 moles fluorescein/mole BSA) used as a control,entry into cells,βTC-3 cell cultures,did not enter the cells
